One series deals with AMPK. As to conditions: cited from earlier work.
The subject of a further series is N2 (wild type) animals. The text has this:
(§1) To determine if the AMP/ATP ratio changed with age, we measured the levels of AMP, ADP, and ATP directly. We lysed 30 adult worms of the appropriate age, grown at the indicated temperature, lysed them, and separated the extract by Reversed Phase HPLC, measuring the Absorbance 260 nm. We used a C. elegans strain that lacks sperm at 25 C [CF512: fem-1(−); fer-15(−)].
(§2) Thirty animals of the appropriate age were hand-transferred to ice-cold lysis buffer (ATP Bioluminiscense Kit, Roche), frozen in liquid nitrogen, boiled for 15 minutes, passed trough a 0.2μ filter (Nanosep), and subjected to isocratic reversed phase chromatography using a TARGA C18 250×4.6 mm 5 μM column equilibrated in 100 mM KH2PO4, pH 6.0 at 1 mL per min. Detection at 260 nm was performed using a WATERS 486 tunable detector. Peak areas were measured using PEAK EXPLORER™ software. […] Unless noted, animals were one day old adults.
(§3) Dauer assays, heat tolerance and behavioral assays were performed as described. Starvation was performed by transfer to bacteria-free, peptone-free plates. Treatment with […] sodium azide was performed by transfer to plates with the drug; fraction alive was determined visually, six hours after transfer to normal growth. Gut fluorescence was photographed on the focal plane of the lumen with a DM505 filter on a NIKON E800 microscope. Average intensity was determined with METAMORPH™ 6.1r1 software.

For series [1], the system named is amp-1(ok524) animals.
Excerpt: as §1, §2, §3

Series [2] has as its system amp-1(ok524) animals. As to conditions: 1 mM sodium azide for 18 hours; amp-1(ok524) versus wild type.
Description: Dauer assays, heat tolerance and behavioral assays were performed as described. Starvation was performed by transfer to bacteria-free, peptone-free plates. […] Gut fluorescence was photographed on the focal plane of the lumen with a DM505 filter on a NIKON E800 microscope. Average intensity was determined with METAMORPH™ 6.1r1 software.
Where [3] appears, read: 1 mM Azide 4 hours, then no azide 1 hour.

Read-outs that look alike come from different tables or passages of the source.

Regarding “Leptin: peptide hormone that increases AMPK activity when applied to cells”, in the series on AMPK (applied to cells), the “effect on AMPK activity” value is listed as “increases AMPK activity”.
With `CN(C)C(=N)N=C(N)N` [Metformin], the “effect on AMPK activity” value with AMPK is given as “stimulate AMPK activity”.
As for `[N-]=[N+]=[N-]` [sodium azide], the “AMP/ATP Average” value in the series on N2 (wild type) animals (1 mM Azide 1 hour) stood at 2.08; in the series with N2 (wild type) animals (1 mM Azide 4 hours) it was 2.53; in the series on N2 (wild type) animals (setting [3]), 1.08; in the series on amp-1(ok524) animals [1] (1 mM Azide 1 hour), 3.19; in the series with amp-1(ok524) animals [1] (1 mM Azide 4 hours) it was 4.34; with amp-1(ok524) animals [1] (setting [3]), 1.24. Further, the “AMP/ATP Average” value with amp-1(ok524) animals [1] (1 mM Azide 4 hours, then no azide 2 hour) stood at 1.29. In addition, the sensitivity to killing result in the series on amp-1(ok524) animals [2] is “more sensitive than wild type animals to killing”.

B1: adiponectin: globular and full-length adiponectin protein (protein, UniProt Q15848 19-244, looked up)
Adiponectin: ETTTQGPGVLLPLPKGACTGWMAGIPGHPGHNGAPGRDGRDGTPGEKGEKGDPGLIGPKGDIGETGVPGAEGPRGFPGIQGRKGEPGEGAYVYRSAFSVGLETYVTIPNMPIRFTKIFYNQQNHYDGSTGKFHCNIPGLYYFAYHITVYMKDVKVSLFKKDKAMLFTYDQYQENNVDQASGSVLLHLEVGDQVWLQVYGEGERNGLYADNDNDSTFTGFLLYHDTN
Regarding B1, the “effect on AMPK activity” value with AMPK (liver cells) is on record as “stimulates AMPK activity”; with AMPK (skeletal muscle) it was “stimulate AMPK activity”.

Source of the values: patent publication US20060147947A1, “AMPK pathway components” (priority 2002, published 2006).
